Laboratory results as given in publication PMC10838953.

What was measured:
AKT (S129) = settings: HEK293 cells; 48 h
ASK1 = ASK1 (Homo sapiens, UniProt Q99683); assay: biochemical; settings: read-out: %Ctrl @ 2000nM
AURKB = AURKB (Homo sapiens, UniProt Q96GD4); assay: biochemical; settings: read-out: %Ctrl @ 2000nM
BMPR2 = BMPR2 (Homo sapiens, UniProt Q13873); assay: biochemical; settings: read-out: %Ctrl @ 2000nM
CDC2L2 = CDC2L2 (Homo sapiens, UniProt Q9UQ88); assay: biochemical; settings: read-out: %Ctrl @ 2000nM
CDKL5 = CDKL5 (Homo sapiens, UniProt O76039); assay: biochemical; settings: read-out: %Ctrl @ 2000nM
CIT = CIT (Homo sapiens, UniProt O14578); assay: biochemical; settings: read-out: %Ctrl @ 2000nM
CSK = CSK (Homo sapiens, UniProt P41240); assay: biochemical; settings: read-out: %Ctrl @ 2000nM
DAPK2 = DAPK2 (Homo sapiens, UniProt Q9UIK4); assay: biochemical; settings: read-out: %Ctrl @ 2000nM
EPHB4 = EPHB4 (Homo sapiens, UniProt P54760); assay: biochemical; settings: read-out: %Ctrl @ 2000nM
ICK = ICK (Homo sapiens, UniProt Q9UPZ9); assay: biochemical; settings: read-out: %Ctrl @ 2000nM
LRRK2(G2019S) = LRRK2(G2019S) (Homo sapiens, UniProt Q5S007, G2019S); assay: biochemical; settings: read-out: %Ctrl @ 2000nM
MAP3K15 = MAP3K15 (Homo sapiens, UniProt Q6ZN16); assay: biochemical; settings: read-out: %Ctrl @ 2000nM
MAPKAPK5 = MAPKAPK5 (Homo sapiens, UniProt Q8IW41); assay: biochemical; settings: read-out: %Ctrl @ 2000nM
MEK5 = MEK5 (Homo sapiens, UniProt Q13163); assay: biochemical; settings: read-out: %Ctrl @ 2000nM
MERTK = MERTK (Homo sapiens, UniProt Q12866); assay: biochemical; settings: read-out: %Ctrl @ 2000nM
MLK2 = MLK2 (Homo sapiens, UniProt Q02779); assay: biochemical; settings: read-out: %Ctrl @ 2000nM
NLK = NLK (Homo sapiens, UniProt Q9UBE8); assay: biochemical; settings: read-out: %Ctrl @ 2000nM
PFPK5(P.falciparum) = PFPK5(P.falciparum) (Plasmodium falciparum, UniProt P61075); assay: biochemical; settings: read-out: %Ctrl @ 2000nM
PIK3CA(E545K) = PIK3CA(E545K) (Homo sapiens, UniProt P42336, E545K); assay: biochemical; settings: read-out: %Ctrl @ 2000nM
PIK3CA(I800L) = PIK3CA(I800L) (Homo sapiens, UniProt P42336, I800L); assay: biochemical; settings: read-out: %Ctrl @ 2000nM
PIK3CB = PIK3CB (Homo sapiens, UniProt P42338); assay: biochemical; settings: read-out: %Ctrl @ 2000nM
PKN1 = PKN1 (Homo sapiens, UniProt Q16512); assay: biochemical; settings: read-out: %Ctrl @ 2000nM
[1] = biological target: RSK1(Kin.Dom.1-N-terminal) (Homo sapiens, UniProt Q15418); assay: biochemical; settings: read-out: %Ctrl @ 2000nM
SRMS = SRMS (Homo sapiens, UniProt Q9H3Y6); assay: biochemical; settings: read-out: %Ctrl @ 2000nM
SRPK3 = SRPK3 (Homo sapiens, UniProt Q9UPE1); assay: biochemical; settings: read-out: %Ctrl @ 2000nM
TIE1 = TIE1 (Homo sapiens, UniProt P35590); assay: biochemical; settings: read-out: %Ctrl @ 2000nM
TRPM6 = TRPM6 (Homo sapiens, UniProt Q9BX84); assay: biochemical; settings: read-out: %Ctrl @ 2000nM
ULK3 = ULK3 (Homo sapiens, UniProt Q6PHR2); assay: biochemical; settings: read-out: %Ctrl @ 2000nM
Chain of ULK3 (Q6PHR2 whole entry): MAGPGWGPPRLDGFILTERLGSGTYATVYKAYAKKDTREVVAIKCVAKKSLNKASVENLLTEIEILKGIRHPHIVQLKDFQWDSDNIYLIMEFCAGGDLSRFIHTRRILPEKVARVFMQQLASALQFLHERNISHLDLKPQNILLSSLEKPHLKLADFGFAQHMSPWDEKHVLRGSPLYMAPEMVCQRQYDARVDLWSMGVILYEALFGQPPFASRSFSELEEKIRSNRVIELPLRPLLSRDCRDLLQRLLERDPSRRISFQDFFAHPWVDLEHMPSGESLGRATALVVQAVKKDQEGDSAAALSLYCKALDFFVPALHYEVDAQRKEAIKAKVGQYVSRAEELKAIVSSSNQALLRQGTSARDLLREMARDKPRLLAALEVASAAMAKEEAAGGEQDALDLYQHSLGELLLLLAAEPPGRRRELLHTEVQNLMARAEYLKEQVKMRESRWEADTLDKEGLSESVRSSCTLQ

Chain of PFPK5(P.falciparum) (P61075 whole entry): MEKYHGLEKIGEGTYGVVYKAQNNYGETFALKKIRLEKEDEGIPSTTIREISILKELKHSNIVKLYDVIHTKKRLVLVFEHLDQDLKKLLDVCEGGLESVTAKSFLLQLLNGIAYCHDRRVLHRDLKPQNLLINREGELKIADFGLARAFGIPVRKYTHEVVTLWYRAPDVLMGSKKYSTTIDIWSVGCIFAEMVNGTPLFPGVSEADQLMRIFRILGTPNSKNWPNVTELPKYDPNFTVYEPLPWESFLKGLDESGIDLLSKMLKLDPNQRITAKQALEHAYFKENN
Chain of EPHB4 (P54760 16-987): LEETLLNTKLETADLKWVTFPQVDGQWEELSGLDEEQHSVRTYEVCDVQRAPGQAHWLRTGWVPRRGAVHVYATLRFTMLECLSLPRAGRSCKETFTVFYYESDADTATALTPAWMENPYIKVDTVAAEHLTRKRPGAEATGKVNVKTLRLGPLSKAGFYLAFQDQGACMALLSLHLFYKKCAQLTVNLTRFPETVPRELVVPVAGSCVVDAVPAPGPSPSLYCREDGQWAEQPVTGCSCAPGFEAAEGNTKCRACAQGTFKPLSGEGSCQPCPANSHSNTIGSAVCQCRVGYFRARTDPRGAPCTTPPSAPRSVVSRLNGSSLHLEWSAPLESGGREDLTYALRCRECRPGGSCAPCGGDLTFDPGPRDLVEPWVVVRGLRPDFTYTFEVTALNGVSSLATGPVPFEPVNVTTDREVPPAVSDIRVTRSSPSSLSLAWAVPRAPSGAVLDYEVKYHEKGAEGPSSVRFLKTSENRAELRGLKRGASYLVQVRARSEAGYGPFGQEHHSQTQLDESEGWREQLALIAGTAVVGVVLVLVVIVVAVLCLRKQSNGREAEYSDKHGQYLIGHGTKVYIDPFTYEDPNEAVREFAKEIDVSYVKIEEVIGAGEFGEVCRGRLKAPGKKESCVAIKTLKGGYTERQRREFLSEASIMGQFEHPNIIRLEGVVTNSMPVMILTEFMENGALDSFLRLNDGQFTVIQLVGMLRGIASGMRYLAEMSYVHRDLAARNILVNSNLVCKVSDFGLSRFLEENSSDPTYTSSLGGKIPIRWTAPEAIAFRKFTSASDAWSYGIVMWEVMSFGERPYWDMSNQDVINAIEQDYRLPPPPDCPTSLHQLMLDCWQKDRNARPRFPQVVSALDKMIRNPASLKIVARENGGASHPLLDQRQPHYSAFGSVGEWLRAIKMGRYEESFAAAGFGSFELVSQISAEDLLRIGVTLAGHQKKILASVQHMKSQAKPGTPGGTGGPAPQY
Chain of MEK5 (Q13163 whole entry): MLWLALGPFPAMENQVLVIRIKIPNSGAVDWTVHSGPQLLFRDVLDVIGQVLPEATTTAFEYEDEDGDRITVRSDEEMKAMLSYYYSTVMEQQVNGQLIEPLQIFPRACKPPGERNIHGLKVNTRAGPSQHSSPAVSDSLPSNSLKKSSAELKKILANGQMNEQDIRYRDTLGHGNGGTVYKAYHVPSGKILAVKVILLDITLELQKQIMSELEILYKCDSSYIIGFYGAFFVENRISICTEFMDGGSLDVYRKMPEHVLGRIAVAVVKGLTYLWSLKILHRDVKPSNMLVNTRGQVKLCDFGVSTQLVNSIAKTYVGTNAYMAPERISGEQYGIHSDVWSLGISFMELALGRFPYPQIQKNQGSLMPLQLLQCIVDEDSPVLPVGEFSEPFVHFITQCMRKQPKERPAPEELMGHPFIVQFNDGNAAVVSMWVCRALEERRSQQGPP
Chain of DAPK2 (Q9UIK4 whole entry): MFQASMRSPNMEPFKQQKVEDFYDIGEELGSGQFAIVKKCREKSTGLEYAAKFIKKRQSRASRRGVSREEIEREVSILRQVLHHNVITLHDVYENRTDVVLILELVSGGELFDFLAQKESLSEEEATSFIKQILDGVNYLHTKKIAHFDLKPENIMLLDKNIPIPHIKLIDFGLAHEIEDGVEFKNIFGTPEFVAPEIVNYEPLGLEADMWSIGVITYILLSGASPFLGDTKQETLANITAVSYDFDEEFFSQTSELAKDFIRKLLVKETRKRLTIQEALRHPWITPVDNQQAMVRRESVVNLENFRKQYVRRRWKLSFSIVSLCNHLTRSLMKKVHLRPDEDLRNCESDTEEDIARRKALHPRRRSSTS
Chain of MLK2 (Q02779 whole entry): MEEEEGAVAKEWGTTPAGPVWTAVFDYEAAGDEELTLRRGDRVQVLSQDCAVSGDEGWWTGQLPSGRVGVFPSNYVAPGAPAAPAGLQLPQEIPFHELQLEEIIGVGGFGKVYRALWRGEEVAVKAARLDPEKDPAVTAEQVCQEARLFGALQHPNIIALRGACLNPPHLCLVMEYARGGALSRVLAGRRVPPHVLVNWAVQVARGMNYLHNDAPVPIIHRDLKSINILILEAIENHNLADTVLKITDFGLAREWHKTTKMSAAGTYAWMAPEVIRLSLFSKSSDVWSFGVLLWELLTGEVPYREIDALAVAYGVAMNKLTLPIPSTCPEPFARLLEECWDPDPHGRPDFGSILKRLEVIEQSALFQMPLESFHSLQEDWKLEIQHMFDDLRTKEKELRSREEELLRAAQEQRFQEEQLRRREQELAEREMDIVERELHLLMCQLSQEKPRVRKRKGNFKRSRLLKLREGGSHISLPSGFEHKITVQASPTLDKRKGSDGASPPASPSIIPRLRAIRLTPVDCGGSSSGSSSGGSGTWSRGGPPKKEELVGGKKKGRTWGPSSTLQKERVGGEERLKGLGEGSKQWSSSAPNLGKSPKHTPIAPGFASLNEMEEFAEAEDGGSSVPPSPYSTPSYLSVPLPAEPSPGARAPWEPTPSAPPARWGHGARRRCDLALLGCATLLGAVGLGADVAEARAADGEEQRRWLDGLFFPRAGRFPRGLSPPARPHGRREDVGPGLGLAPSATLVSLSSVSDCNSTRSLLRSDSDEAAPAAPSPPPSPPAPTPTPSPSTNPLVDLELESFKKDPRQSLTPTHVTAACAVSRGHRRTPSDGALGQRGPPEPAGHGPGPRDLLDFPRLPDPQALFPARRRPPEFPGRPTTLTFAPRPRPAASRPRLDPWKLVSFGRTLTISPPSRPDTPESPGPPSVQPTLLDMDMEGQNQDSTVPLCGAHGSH
Chain of MAPKAPK5 (Q8IW41 whole entry): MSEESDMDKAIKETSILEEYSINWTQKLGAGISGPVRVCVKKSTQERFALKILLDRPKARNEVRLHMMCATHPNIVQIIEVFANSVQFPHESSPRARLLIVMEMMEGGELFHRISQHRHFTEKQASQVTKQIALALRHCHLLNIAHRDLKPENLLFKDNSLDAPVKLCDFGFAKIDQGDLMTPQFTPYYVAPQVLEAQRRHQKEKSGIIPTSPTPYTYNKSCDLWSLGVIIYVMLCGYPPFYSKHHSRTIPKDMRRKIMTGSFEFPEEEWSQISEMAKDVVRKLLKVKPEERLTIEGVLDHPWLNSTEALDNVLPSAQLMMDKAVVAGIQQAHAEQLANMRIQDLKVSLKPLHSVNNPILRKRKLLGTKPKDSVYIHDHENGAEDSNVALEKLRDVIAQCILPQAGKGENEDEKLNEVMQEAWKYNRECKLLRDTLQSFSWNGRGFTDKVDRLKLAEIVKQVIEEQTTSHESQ
Chain of SRMS (Q9H3Y6 whole entry): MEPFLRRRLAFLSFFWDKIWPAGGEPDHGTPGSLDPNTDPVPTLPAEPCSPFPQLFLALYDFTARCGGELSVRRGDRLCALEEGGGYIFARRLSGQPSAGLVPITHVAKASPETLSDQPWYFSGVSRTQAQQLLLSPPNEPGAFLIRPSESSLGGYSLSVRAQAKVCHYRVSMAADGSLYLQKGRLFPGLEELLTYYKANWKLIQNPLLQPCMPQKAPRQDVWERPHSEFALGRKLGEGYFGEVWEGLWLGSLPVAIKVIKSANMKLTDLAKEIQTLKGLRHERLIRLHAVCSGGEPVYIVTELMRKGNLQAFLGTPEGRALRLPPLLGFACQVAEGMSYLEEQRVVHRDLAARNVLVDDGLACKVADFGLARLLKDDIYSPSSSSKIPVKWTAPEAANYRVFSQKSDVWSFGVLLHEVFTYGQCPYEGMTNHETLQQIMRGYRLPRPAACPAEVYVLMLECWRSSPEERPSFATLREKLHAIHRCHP
Chain of AURKB (Q96GD4 whole entry): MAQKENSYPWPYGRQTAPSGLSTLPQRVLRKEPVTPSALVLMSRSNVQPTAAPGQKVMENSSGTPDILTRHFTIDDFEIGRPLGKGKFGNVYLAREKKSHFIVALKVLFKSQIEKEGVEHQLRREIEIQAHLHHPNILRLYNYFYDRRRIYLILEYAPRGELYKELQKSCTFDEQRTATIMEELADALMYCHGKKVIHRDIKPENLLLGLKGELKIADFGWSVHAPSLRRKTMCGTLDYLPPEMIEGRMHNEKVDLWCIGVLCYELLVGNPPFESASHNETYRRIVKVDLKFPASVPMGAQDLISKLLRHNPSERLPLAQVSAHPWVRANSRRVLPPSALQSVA

CC(C)COC(=O)c1[nH]c2ccc(F)cc2c1-c1cn(CC2CCN(CCNS(=O)(=O)c3ccc(CC(C)C)cc3)CC2)nn1 [AB668, isobutyl 5-fluoro-3-(1-((1-(2-((4-isobutylphenyl)sulfonamido)ethyl)piperidin-4-yl)methyl)-1H-1,2,3-triazol-4-yl)-1H-indole-2-carboxylate]
AKT phosphorylation (AKT (S129)): weakly affected
remaining activity at 2 µM (ASK1): 100%
remaining activity at 2 µM (AURKB): 99%
remaining activity at 2 µM (BMPR2): 100%
remaining activity at 2 µM (CDC2L2): 94%
remaining activity at 2 µM (CDKL5): 91%
remaining activity at 2 µM (CIT): 88%
remaining activity at 2 µM (CSK): 95%
remaining activity at 2 µM (DAPK2): 71%
remaining activity at 2 µM (EPHB4): 79%
remaining activity at 2 µM (ICK): 100%
remaining activity at 2 µM (LRRK2(G2019S)): 86%
remaining activity at 2 µM (MAP3K15): 51%
remaining activity at 2 µM (MAPKAPK5): 95%
remaining activity at 2 µM (MEK5): 100%
remaining activity at 2 µM (MERTK): 96%
remaining activity at 2 µM (MLK2): 73%
remaining activity at 2 µM (NLK): 77%
remaining activity at 2 µM (PFPK5(P.falciparum)): 100%
remaining activity at 2 µM (PIK3CA(E545K)): 88%
remaining activity at 2 µM (PIK3CA(I800L)): 98%
remaining activity at 2 µM (PIK3CB): 90%
remaining activity at 2 µM (PKN1): 91%
remaining activity at 2 µM [1]: 100%
remaining activity at 2 µM (SRMS): 93%
remaining activity at 2 µM (SRPK3): 100%
remaining activity at 2 µM (TIE1): 89%
remaining activity at 2 µM (TRPM6): 81%
remaining activity at 2 µM (ULK3): 82%
